This is an account of results in PMC5599507 (Scientific Reports, 2017).

Where two headings read alike, the source gives them in different places. Where only a bound is given, the exact number is not on record here.

Data set [1] has as its target T1, NR1/NR2A NMDAR (Homo sapiens, UniProt Q05586+Q12879).
T1 construct: cDNAs for the GRIN1 (NM_007327), GRIN2A (NM_000833.3), GRIN2B (NM_000834.3) and Kir2.1 (NM_000891.2) proteins were purchased from GeneCopoeia; expressed in transfected cells; host or cells: HEK293 cells (ATCC) transduced with BacMam baculovirus (pFastBac-CMV-GW-DEST); virus made in Sf9
The experiment in a line: NMDAR-mediated calcium flux assay, NR1/NR2A-transduced HEK293 cells. The conditions noted are these: for EC50: MDL105,519-protected cells after washout, read-out: EC50 of activation of NMDAR-mediated calcium flux; for effect on NMDAR activity at saturating concentrations of ligand: saturating concentrations of both ligands; for potentiation of NMDAR activity at submaximal ligand concentration: submaximal (EC30) D-serine or glutamate; for ligand-induced NMDAR-mediated calcium influx after protection with the compound and washout: cells cultured 16 h with compound, washed, stimulated with glycine/glutamate; for glutamate concentration dependence of inhibitor potency: CGP070667-protected cells. The format is cell-based. A general note: Calcium assays in cells follow changes in intracellular calcium, usually with a dye or a luminescent sensor.
Description: (§2) 10^4 cells per 384-well were infected with baculovirus in suspension, seeded into a clear bottom, poly-D-lysine treated 384-well plate (Corning) and treated with the indicated concentrations of protection compound (100 µM MDL105,519 or 5 µM CGP070667). 16 h after transduction, cell medium was replaced with calcium6-dye (Molecular Devices, R8192) in incubation buffer (HBSS pH 7.5, 20 mM HEPES, 1 mM MgCl2, 1 mM probenecid) and cells were incubated at 37 °C for 2 h. […] In the beginning of each experiment baseline fluorescence (F0) was measure for 5–30 sec. For compound treatment, 10 µl of a 4× stock of compound diluted in assay buffer was added on the FDSS (speed 20 µl/s, tip height 1.8 mm) fluorescence was measured for 5 min (interval 1) before adding 10 µl of a 5× stock of ligand diluted in assay buffer and measurement of fluorescence for 5 min (interval 2). For single addition experiments, the maximal fluorescence ratio was calculated by dividing the maximal fluorescence in interval 1 by the average baseline fluorescence (Fmax/F0). For experiments requiring two additions, the integral of the fluorescence ratio was determined by calculating the area under the curve of the fluorescent ratios in interval 2. Data was analyzed as indicated and was normalized to controls located on the same plate.

Data set [2] has as its system NR1/NR2A-H44A/E226A. The experiment in a line: NMDAR-mediated calcium flux assay, NR1/NR2A-H44A/E226A mutant in HEK293 cells. Particulars: at the EC50 of D-serine.
Description: as §2
The target in data set [3] is T2, NR1/NR2A-V783F (Homo sapiens, UniProt Q05586+Q12879, V783F).
T2 construct: cDNAs for the GRIN1 (NM_007327), GRIN2A (NM_000833.3), GRIN2B (NM_000834.3) and Kir2.1 (NM_000891.2) proteins were purchased from GeneCopoeia; expressed in transfected cells; host or cells: HEK293 cells transduced with BacMam baculovirus
The data set can be described thus: NMDAR-mediated calcium flux assay, NR1/NR2A-V783F mutant in HEK293 cells. The format is cell-based. Particulars: MDL105,519-protected cells.
Description: 16 h after transduction, cell medium was replaced with calcium6-dye (Molecular Devices, R8192) in incubation buffer (HBSS pH 7.5, 20 mM HEPES, 1 mM MgCl2, 1 mM probenecid) and cells were incubated at 37 °C for 2 h. Before measurement, the dye-solution was replaced with 30 ul assay buffer (HBSS pH 7.5, 20 mM HEPES, 1.8 mM CaCl2). Cells were allowed to rest for 10 min at room temperature before measuring calcium flux on a FDSS7000 plate reader (Hamamatsu) with the following settings: 1 sec measurement interval, 200 ms exposure time, 2 × 2 binning, Ex480 nm:Em540 nm, sensitivity 1–3. In the beginning of each experiment baseline fluorescence (F0) was measure for 5–30 sec. For compound treatment, 10 µl of a 4× stock of compound diluted in assay buffer was added on the FDSS (speed 20 µl/s, tip height 1.8 mm) fluorescence was measured for 5 min (interval 1) before adding 10 µl of a 5× stock of ligand diluted in assay buffer and measurement of fluorescence for 5 min (interval 2). For single addition experiments, the maximal fluorescence ratio was calculated by dividing the maximal fluorescence in interval 1 by the average baseline fluorescence (Fmax/F0). For experiments requiring two additions, the integral of the fluorescence ratio was determined by calculating the area under the curve of the fluorescent ratios in interval 2. […]

Data set [4] has as its target T3, NR1/NR2B NMDAR (Homo sapiens, UniProt Q05586+Q13224).
T3 construct: cDNAs for the GRIN1 (NM_007327), GRIN2A (NM_000833.3), GRIN2B (NM_000834.3) and Kir2.1 (NM_000891.2) proteins were purchased from GeneCopoeia; expressed in transfected cells; host or cells: HEK293 cells (ATCC) transduced with BacMam baculovirus (pFastBac-CMV-GW-DEST)
The experiment in a line: NMDAR-mediated calcium flux assay, NR1/NR2B-transduced HEK293 cells. The format is cell-based.
Description: 16 h after transduction, cell medium was replaced with calcium6-dye (Molecular Devices, R8192) in incubation buffer (HBSS pH 7.5, 20 mM HEPES, 1 mM MgCl2, 1 mM probenecid) and cells were incubated at 37 °C for 2 h. Before measurement, the dye-solution was replaced with 30 ul assay buffer (HBSS pH 7.5, 20 mM HEPES, 1.8 mM CaCl2). Cells were allowed to rest for 10 min at room temperature before measuring calcium flux on a FDSS7000 plate reader (Hamamatsu) with the following settings: 1 sec measurement interval, 200 ms exposure time, 2 × 2 binning, Ex480 nm:Em540 nm, sensitivity 1–3. In the beginning of each experiment baseline fluorescence (F0) was measure for 5–30 sec. For compound treatment, 10 µl of a 4× stock of compound diluted in assay buffer was added on the FDSS (speed 20 µl/s, tip height 1.8 mm) fluorescence was measured for 5 min (interval 1) before adding 10 µl of a 5× stock of ligand diluted in assay buffer and measurement of fluorescence for 5 min (interval 2). For single addition experiments, the maximal fluorescence ratio was calculated by dividing the maximal fluorescence in interval 1 by the average baseline fluorescence (Fmax/F0). For experiments requiring two additions, the integral of the fluorescence ratio was determined by calculating the area under the curve of the fluorescent ratios in interval 2. Data was analyzed as indicated and was normalized to controls located on the same plate.

For data set [5], the system named is HEK293 cells. The data set can be described thus: Cell viability (CellTiterGlo) of HEK293 cells, toxicity of the compound itself. The conditions noted are these: 16 h treatment. The format is cell-based, human. On the procedure: (§1) Cell viability was assessed Cell Titer Glo (Promega) and measured on an Envision plate reader (PerkinElmer).
(Cellular ATP, detected with luciferase, serves as a proxy for viable cell number.)

Data set [6] concerns NR1/2A-transduced HEK293 cells. The data set can be described thus: Cell viability (CellTiterGlo) of NR1/2A-transduced HEK293 cells, protection from excitotoxicity. The format is cell-based, human. On the procedure: as §1
Setting [7] is: 16 h after transduction with concurrent treatment.
Setting [8] is: HEK293 cells after protection with MDL105,519, stimulation with EC80 of both ligands, mean, n > 3, n.d. = not detectable, read-out: IC50 NR2A.
The mark [9] stands for this setting: HEK293 cells after protection with MDL105,519, stimulation with EC80 of both ligands, mean, n > 3, n.d. = not detectable, read-out: IC50 NR2B.

T3 sequence (Q13224 27-1484, other chains not shown): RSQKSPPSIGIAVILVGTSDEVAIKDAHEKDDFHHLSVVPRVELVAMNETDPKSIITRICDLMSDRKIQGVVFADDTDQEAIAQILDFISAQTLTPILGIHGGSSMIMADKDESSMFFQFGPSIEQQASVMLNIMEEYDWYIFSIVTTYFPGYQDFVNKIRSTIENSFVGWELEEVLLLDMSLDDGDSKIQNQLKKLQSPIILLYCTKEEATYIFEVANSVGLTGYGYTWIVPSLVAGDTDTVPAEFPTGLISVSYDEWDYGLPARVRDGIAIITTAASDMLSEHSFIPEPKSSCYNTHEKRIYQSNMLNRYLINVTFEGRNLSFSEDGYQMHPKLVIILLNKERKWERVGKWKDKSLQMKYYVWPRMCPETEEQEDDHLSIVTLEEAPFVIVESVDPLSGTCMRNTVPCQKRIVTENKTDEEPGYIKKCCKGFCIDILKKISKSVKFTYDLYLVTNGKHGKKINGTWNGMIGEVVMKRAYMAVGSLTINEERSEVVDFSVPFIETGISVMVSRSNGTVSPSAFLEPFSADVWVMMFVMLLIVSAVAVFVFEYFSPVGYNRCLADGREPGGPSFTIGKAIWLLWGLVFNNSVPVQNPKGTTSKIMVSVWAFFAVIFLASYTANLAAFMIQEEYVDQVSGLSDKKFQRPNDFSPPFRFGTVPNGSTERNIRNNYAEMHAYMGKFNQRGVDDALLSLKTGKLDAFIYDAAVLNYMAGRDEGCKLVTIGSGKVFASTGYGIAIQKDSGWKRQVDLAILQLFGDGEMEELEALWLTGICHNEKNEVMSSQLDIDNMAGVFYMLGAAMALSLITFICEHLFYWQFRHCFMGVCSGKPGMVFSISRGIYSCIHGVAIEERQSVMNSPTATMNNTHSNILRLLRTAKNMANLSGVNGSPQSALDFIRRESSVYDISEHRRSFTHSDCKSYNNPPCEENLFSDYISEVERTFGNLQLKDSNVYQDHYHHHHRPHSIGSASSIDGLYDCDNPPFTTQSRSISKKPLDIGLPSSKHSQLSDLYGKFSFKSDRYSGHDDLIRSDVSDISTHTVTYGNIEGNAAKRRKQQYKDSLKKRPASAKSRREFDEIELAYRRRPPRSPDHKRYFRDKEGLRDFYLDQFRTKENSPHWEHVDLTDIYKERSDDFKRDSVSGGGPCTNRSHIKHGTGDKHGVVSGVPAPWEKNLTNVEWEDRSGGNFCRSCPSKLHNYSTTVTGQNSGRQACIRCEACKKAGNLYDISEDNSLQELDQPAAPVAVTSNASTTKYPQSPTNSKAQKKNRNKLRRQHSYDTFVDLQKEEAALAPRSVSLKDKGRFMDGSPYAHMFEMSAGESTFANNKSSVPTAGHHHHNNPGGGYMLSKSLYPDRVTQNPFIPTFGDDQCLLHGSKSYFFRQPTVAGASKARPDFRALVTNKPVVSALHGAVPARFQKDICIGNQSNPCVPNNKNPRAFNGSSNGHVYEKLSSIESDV
T1 sequence (Q12879 23-1464, other chains not shown): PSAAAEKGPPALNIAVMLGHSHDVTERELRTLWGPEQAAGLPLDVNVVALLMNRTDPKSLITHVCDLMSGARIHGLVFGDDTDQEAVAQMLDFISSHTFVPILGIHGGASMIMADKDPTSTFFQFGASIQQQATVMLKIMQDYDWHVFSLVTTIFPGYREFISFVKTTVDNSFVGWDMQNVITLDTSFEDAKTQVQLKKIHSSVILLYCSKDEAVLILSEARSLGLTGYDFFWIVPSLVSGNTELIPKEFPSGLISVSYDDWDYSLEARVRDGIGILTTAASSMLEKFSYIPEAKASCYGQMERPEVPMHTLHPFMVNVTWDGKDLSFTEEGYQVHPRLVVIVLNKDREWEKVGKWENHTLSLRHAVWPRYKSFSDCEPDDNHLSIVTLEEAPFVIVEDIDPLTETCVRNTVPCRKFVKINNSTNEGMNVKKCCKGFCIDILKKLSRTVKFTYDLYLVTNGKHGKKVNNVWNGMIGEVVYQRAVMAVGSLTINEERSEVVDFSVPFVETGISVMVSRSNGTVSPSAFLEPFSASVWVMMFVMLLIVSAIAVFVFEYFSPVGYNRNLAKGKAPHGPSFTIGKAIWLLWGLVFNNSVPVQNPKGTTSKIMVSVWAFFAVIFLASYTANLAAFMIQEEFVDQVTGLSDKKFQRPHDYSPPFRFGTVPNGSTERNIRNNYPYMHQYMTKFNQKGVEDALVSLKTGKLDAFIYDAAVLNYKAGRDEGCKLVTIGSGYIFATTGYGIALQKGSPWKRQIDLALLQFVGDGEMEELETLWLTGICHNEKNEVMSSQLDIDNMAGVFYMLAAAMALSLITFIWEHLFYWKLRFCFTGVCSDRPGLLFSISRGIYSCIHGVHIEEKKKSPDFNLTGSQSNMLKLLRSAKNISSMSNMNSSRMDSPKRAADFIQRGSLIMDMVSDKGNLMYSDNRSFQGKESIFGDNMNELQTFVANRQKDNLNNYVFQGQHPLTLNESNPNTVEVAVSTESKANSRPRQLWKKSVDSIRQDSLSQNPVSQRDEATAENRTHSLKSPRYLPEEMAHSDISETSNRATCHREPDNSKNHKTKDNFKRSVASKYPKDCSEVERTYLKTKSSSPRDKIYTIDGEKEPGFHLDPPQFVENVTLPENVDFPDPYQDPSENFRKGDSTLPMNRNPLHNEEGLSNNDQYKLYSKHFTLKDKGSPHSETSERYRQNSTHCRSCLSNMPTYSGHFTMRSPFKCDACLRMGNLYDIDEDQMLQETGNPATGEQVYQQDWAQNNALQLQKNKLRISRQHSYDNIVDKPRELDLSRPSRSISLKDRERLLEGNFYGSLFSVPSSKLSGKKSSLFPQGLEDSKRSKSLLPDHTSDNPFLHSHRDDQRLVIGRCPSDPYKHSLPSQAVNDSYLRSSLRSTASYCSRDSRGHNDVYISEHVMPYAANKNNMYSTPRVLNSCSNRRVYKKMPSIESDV
T2 sequence (Q12879 23-1464 V783F, other chains not shown): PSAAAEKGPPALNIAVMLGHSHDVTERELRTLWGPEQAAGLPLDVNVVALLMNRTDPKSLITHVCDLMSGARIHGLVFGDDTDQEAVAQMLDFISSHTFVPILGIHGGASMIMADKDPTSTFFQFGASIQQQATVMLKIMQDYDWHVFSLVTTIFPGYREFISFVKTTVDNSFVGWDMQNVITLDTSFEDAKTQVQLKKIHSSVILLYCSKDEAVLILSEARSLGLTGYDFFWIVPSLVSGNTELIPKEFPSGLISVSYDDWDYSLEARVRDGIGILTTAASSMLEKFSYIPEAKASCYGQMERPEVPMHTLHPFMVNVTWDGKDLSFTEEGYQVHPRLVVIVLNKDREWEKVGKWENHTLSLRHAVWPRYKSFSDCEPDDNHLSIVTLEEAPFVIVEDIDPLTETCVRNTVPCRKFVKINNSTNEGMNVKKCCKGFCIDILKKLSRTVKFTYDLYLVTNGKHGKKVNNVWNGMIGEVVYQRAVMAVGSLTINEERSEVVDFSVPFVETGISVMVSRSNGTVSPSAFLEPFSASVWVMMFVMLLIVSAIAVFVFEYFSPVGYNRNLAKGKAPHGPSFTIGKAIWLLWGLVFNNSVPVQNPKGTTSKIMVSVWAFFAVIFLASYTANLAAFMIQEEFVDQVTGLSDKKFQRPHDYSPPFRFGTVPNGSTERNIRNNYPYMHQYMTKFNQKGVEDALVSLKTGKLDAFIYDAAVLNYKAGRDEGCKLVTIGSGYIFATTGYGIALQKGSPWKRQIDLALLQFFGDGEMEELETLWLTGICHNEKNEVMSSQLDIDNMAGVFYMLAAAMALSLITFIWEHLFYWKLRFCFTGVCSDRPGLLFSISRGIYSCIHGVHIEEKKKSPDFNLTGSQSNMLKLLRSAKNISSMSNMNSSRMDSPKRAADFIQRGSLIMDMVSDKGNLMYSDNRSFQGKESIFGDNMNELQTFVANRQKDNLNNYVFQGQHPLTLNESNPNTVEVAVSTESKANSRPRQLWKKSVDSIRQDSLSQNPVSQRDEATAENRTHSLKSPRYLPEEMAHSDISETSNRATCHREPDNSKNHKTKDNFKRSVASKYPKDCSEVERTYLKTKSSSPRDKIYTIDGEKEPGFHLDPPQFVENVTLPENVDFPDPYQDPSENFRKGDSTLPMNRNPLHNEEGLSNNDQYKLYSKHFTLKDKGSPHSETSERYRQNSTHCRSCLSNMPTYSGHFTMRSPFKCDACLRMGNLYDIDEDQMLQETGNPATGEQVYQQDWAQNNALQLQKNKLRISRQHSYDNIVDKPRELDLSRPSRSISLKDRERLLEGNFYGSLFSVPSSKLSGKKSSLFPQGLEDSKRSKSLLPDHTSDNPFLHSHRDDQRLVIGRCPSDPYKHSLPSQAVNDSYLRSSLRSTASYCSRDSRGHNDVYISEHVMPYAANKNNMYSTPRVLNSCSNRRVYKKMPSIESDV

The EC50 is the concentration that produces a half-maximal response. On to `N[C@H](CO)C(=O)O` [D-serine], for which the EC50 in data set [1] was roughly 9000 nM.

Regarding `O=C(O)CN(CCN(CC(=O)O)CC(=O)O)CC(=O)O` [EDTA], the “sensitivity of the double mutant to activation” value in data set [2] (compared to wildtype NR2A) is listed as “less sensitive”.

As for `CCN(Cc1cc(=O)n2c3c(sc2n1)CCC3)c1ccc(F)cc1` [GNE-8324], the “sensitivity of NR1/2A-V783F to the compound” value in data set [3] is reported as “complete loss of sensitivity”. In addition, in data set [1], the “effect on NMDAR activity at saturating concentrations of ligand” value was “enhanced NMDAR activity” and the “potentiation of NMDAR activity at submaximal ligand concentration” value is given as “concentration-dependent potentiation”. Moreover, in data set [4], the “effect on NR1/2B-mediated calcium flux” value is given as “no effect”.

For `CNC1(c2ccccc2Cl)CCCCC1=O` (stereo not shown) [Ketamine], in data set [1], the IC50 was determined as 23000 nM; the “ligand-induced NMDAR-mediated calcium influx after protection with the compound and washout” value is on record as “did not observe significant ligand-induced NMDAR-mediated calcium influx”. The “toxic effect on HEK293 cells” value in data set [5] was “dose-dependent toxic effect”. Moreover, the IC50 in data set [4] was 12100 nM. Further, the “protection from NMDAR-mediated excitotoxicity (cell viability)” value (from here on “protection … (cell viability)”) in data set [6] (setting [7]) is “could be rescued”.

For `O=c1[nH]c2cc(Cl)ccc2c(O)c1-c1cccc(Oc2ccccc2)c1` [L701,324], the IC50 in data set [1] (setting [8]) worked out at 1450 nM; in data set [4] (setting [9]), 1910 nM.

On to `N[C@@H](CO)C(=O)O` [L-serine], for which, in data set [1] (MDL105,519-protected cells, saturating glutamate), the “right shift in potency as compared to D-serine” value is reported as ~ 200 fold.

Regarding `O=C(O)C(=Cc1c(C(=O)O)[nH]c2cc(Cl)cc(Cl)c12)c1ccccc1` [MDL105,519], in data set [1], the “glutamate concentration dependence of inhibitor potency” value is on record as “only minor effects”; the “ligand-induced NMDAR-mediated calcium influx after protection with the compound and washout” value is given as “enabled the largest dynamic range of NMDAR-activity”. The IC50 in data set [1] (setting [8]) amounted to 620 nM. Besides, in data set [1] (MDL105,519-protected cells), the “shift of inhibitor dose response curve, EC100 vs EC20 of D-serine” value is listed as “right shift”. Further, the IC50 in data set [4] (setting [9]) was 1650 nM. The “protection … (cell viability)” value in data set [6] (setting [7]) was “dose-dependent rescue of cell viability”. Further, the “cell viability compared to non-transduced cells” value in data set [6] (overnight (16 h) treatment of NR1/2A-transduced cells, screen of 120 compounds) is reported as greater than 70%.

Consider `C[C@]12N[C@H](Cc3ccccc31)c1ccccc12` [MK801], for which, in data set [1], the “glutamate concentration dependence of inhibitor potency” value is given as “only minor effects”; the “ligand-induced NMDAR-mediated calcium influx after protection with the compound and washout” value is given as “did not observe significant ligand-induced NMDAR-mediated calcium influx”. Moreover, in data set [1] (after washout of MDL105,519, no ligand), the “change of signal on NMDAR block in the absence of ligand (basal activity)” value was “only a weak decrease of signal”. Besides, in data set [4] (setting [9]), the IC50 stood at 150 nM. Moreover, the “protection … (cell viability)” value in data set [6] (setting [7]) is reported as “could be rescued”.

As to `[Cl-].[Cl-].[Mg+2]` [MgCl2, magnesium chloride], the “sensitivity of NR1/NR2A to inhibition with increasing Kir2.1 baculovirus titer” value in data set [1] (co-transduction with Kir2.1 (KCNJ2), MDL105,519-protected cells) is on record as “increased sensitivity”. In data set [6] (setting [7]), the “concentration giving partial rescue of cell viability” value was greater than 10 mM and the “protection … (cell viability)” value is “partial rescue”.

Consider `C[C@H](NC(c1cccc2[nH]c(=O)c(=O)[nH]c12)P(=O)(O)O)c1ccc(Br)cc1` (stereo partly shown) [NVP-AAM077], for which the IC50 in data set [1] (setting [8]) amounted to 2460 nM; in data set [4] (setting [9]), 11900 nM.

Turning to `C[C@@H](CN1CCC(Cc2ccccc2)CC1)[C@@H](O)c1ccc(O)cc1` [RO25-6981], the IC50 in data set [4] (setting [9]) was found to be 100 nM.

As to `NCC(=O)O` [glycine], the “sensitivity of NMDAR-mediated calcium flux to ligand” value in data set [1] (CGP070667-protected cells after washout) is “insensitivity”. Also, in data set [1], the EC50 was roughly 12000 nM.

With `[Zn+2]` [zinc], the IC50 in data set [1] (MDL105,519-protected cells, at the EC50 of D-serine, read-out: IC50 for zinc, wildtype receptor) was roughly 100 nM; in data set [2] (read-out: IC50 for zinc, NR2A-H44A/E226A double mutant, MDL105,519-protected cells), greater than 10000 nM.

For pregnenolone sulfate [PS], the “effect on NMDAR activity at saturating concentrations of ligand” value in data set [1] and in data set [4] (saturating concentrations of both ligands) was “supramaximal activation” in each case. The “potentiation of NMDAR activity at submaximal ligand concentration” value in data set [1] and in data set [4] (submaximal (EC30) D-serine or glutamate) was “enhanced NMDAR activity” each time.
